In test [1] the test system is ROS17/2.8 cells. Nature of the test: Cell growth of ROS17/2.8 cells by BrdU uptake (Cell Proliferation Biotrak ELISA). It is filed as cell-based, rat. The conditions noted are these: for Relative index of BrdU uptake amount, Solution 3 (1α,25-dihydroxyvitamin D3 alone): 10^−4M 1α,25-dihydroxyvitamin D3 solution diluted 1000 fold; for Cell growth of ROS17/2.8 cells compared with Solution 1 (FIG. 1) / Cell growth of ROS17/2.8 cells compared with Solution 1 (FIG. 2): BrdU uptake, Dunnett multiple comparison test; for Product of relative indices of single agent addition group: Bürgi's method. The protocol: ROS17/2.8 cells were inoculated to a 96-well plate at a density of 2×10^4 cells/well. An αMEM medium to which 10% fetal calf serum had been added (referred to as the 10% FCS-αMEM, hereinafter) was used as a medium. After culture of the cells overnight, the medium was removed from each well, and an αMEM medium to which 0.5% fetal calf serum had been added (referred to as the 0.5% FCS-αMEM, hereinafter) was added. After culture of the cells for about six hours, the medium was removed from each well, and a 10% FCS-αMEM comprising DMSO and ethanol (referred to as Solution 1, hereinafter), a Compound 1 solution and ethanol (referred to as Solution 2, hereinafter), a 1α,25-dihydroxyvitamin D3 solution and DMSO (referred to as Solution 3, hereinafter) or the Compound 1 solution and the 1α,25-dihydroxyvitamin D3 solution (referred to as Solution 4, hereinafter) was added. The 10% FCS-αMEM comprising Solution 1 was prepared by diluting DMSO and ethanol by 1000 fold with the 10% FCS-αMEM. The 10% FCS-αMEM comprising Solution 2 was prepared by diluting a 10^−5M Compound 1 solution and ethanol by 1000 fold with the 10% FCS-αMEM. The 10% FCS-αMEM comprising Solution 3 was prepared by diluting a 10^−4M 1α,25-dihydroxyvitamin D3 solution and DMSO by 1000 fold with the 10% FCS-αMEM. The 10% FCS-αMEM comprising Solution 4 was prepared by diluting the 10^−5M Compound 1 solution and the 10^−4M 1α,25-dihydroxyvitamin D3 solution by 1000 fold with the 10% FCS-αMEM. After culture of the cells for about 24 hours, the effect of Compound 1 and 1α,25-dihydroxyvitamin D3 on the cell growth of the ROS17/2.8 cells was evaluated using Amersham Cell Proliferation Biotrak ELISA system, version 2 (manufactured by GE healthcare bioscience K.K., Code No. RPN250). Namely, growing cells were made take 5-bromo-2′-deoxyuridine (BrdU) into the cells, and the cells were detected by ELISA using peroxidase-labeled anti-BrdU antibodies. The amount of BrdU taken into the cells was determined by measuring absorbance (450 nm) of the solution by a microplate reader.
The BrdU uptake amount in each solution addition group was obtained in terms of a percentage to the average value of the BrdU uptake amount in four wells in a Solution 1 addition group. The graph was made using the average value±standard error of the four wells of each solution addition group.
In the Bürgi's method, the value of a standard group is […] the values of each treated group to obtain a relative index. […] If they are the same, it is determined that there is an added action. In contrast, if the value of the combination treatment group is poor, it is determined that there is an antagonistic action.
ROS17/2.8 cells were inoculated to a 96-well plate at a density of 5×10^3 cells/well. The 10% FCS-αMEM was used as a medium. After culture of the cells overnight, the medium was removed from each well, and the 0.5% FCS-αMEM was added. After culture of the cells for about six hours, the medium was removed from each well, and the 10% FCS-αMEM comprising DMSO and ethanol (referred to as Solution 1, hereinafter), a Compound 11 solution and ethanol (referred to as Solution 5, hereinafter), the 1α,25-dihydroxyvitamin D3 solution and DMSO (referred to as Solution 3, hereinafter) or the Compound 11 solution and the 1α,25-dihydroxyvitamin D3 solution (referred to as Solution 6, hereinafter) was added. The 10% FCS-αMEM comprising Solution 1 was prepared by diluting DMSO and ethanol by 1000 fold with the 10% FCS-αMEM. The 10% FCS-αMEM comprising Solution 5 was prepared by diluting a 10^−5M Compound 11 solution and ethanol by 1000 fold with the 10% FCS-αMEM. The 10% FCS-αMEM comprising Solution 3 was prepared by diluting a 10^−4M 1α,25-dihydroxyvitamin D3 solution and DMSO by 1000 fold with the 10% FCS-αMEM.
A general note: ELISA stands for enzyme-linked immunosorbent assay.

Test [2] concerns ROS17/2.8 cells. Nature of the test: Cell growth of ROS17/2.8 cells by the MTT method (formed formazan). It counts as cell-based, rat.
[3] abbreviates: amount of formed formazan, Solution 7 = 1.00.

As to `C=C1/C(=C\C=C2/CCC[C@]3(C)[C@@H]([C@H](C)CCCC(C)(C)O)CC[C@@H]23)C[C@@H](O)C[C@@H]1O` [1α,25-dihydroxyvitamin D3, reference compound], the “Relative index of BrdU uptake amount, Solution 3 (1α,25-dihydroxyvitamin D3 alone)” value in the test on ROS17/2.8 cells [1] (Example 1, 2×10^4 cells/well, about 24 hours, Solution 1 = 1.000) is given as 1.220; in the test on ROS17/2.8 cells [1] (Example 2, 5×10^3 cells/well, about 24 hours, Solution 1 = 1.000), 1.195. Moreover, in the test on ROS17/2.8 cells [1] (Example 1), the “Cell growth of ROS17/2.8 cells compared with Solution 1 (FIG. 1)” value is “not significantly different”. Further, the “Cell growth of ROS17/2.8 cells compared with Solution 1 (FIG. 2)” value in the test with ROS17/2.8 cells [1] (Example 2) is listed as “not significantly different”. The “Relative index of Solution 9 (1α,25-dihydroxyvitamin D3 alone)” value with ROS17/2.8 cells [2] (setting [3]) is 1.05. In the test on ROS17/2.8 cells [2] (percentage to Solution 7 addition group, 2×10^−3M 1α,25-dihydroxyvitamin D3 solution diluted 10000 fold, about 48 hours, average ± standard deviation of four wells), the “Amount of formed formazan, Solution 9 (1α,25-dihydroxyvitamin D3 alone)” value is recorded as 105 ± 3.1%.
As for `Cc1nc(-c2ccc(OCCCCCOc3ccc(/C(N)=N/O)cc3)cc2)c(C(C)C)s1` [Compound 1, N-hydroxy-4-{5-[4-(5-isopropyl-2-methyl-1,3-thiazol-4-yl)phenoxy]pentoxy}benzamidine], in the test on ROS17/2.8 cells [1] (Example 1, 2×10^4 cells/well, 10^−5M Compound 1 solution diluted 1000 fold, about 24 hours, Solution 1 = 1.000), the “Relative index of BrdU uptake amount, Solution 2 (Compound 1 alone)” value was 1.011. Besides, the “Cell growth of ROS17/2.8 cells compared with Solution 1 (FIG. 1)” value in the test on ROS17/2.8 cells [1] (Example 1) is “not significantly different”. In the test on ROS17/2.8 cells [1] (Example 1, Compound 1 alone × 1α,25-dihydroxyvitamin D3 alone), the “Product of relative indices of single agent addition group” value was determined as 1.233.
On to `CCCN(CCC)c1nc(-c2ccc(OCCCCCOc3ccc(/C(N)=N/O)cc3)cc2)c(CC)s1` [Compound 11, N-hydroxy-4-{5-[4-(2-dipropylamino-5-ethyl-1,3-thiazol-4-yl)phenoxy]pentoxy}benzamidine], for which the “Relative index of BrdU uptake amount, Solution 5 (Compound 11 alone)” value in the test with ROS17/2.8 cells [1] (Example 2, 5×10^3 cells/well, 10^−5M Compound 11 solution diluted 1000 fold, about 24 hours, Solution 1 = 1.000) was determined as 1.023. The “Cell growth of ROS17/2.8 cells compared with Solution 1 (FIG. 2)” value in the test on ROS17/2.8 cells [1] (Example 2) was “not significantly different”. For the same compound, in the test on ROS17/2.8 cells [1] (Example 2, Compound 11 alone × 1α,25-dihydroxyvitamin D3 alone), the “Product of relative indices of single agent addition group” value is on record as 1.223. In addition, the activity at 0.02 µM in the test with ROS17/2.8 cells [2] (Rattus norvegicus, percentage to Solution 7 addition group, 2×10^−5M Test Compound solution diluted 1000 fold, about 48 hours, average ± standard deviation of four wells, read-out: Amount of formed formazan, Solution 8 (Test Compound alone)) was 103 ± 2.4%. Further, in the test on ROS17/2.8 cells [2] (Test Compound in combination with 1α,25-dihydroxyvitamin D3, amount of formed formazan, Solution 7 = 1.00), the “Relative index of Solution 10 (a group of a drug combination)” value is given as 1.15. Also, the “Amount of formed formazan, Solution 10 (a group of a drug combination)” value in the test with ROS17/2.8 cells [2] (Test Compound in combination with 1α,25-dihydroxyvitamin D3, percentage to Solution 7 addition group, about 48 hours, average ± standard deviation of four wells) is on record as 115 ± 4.4 # %. Besides, the “Relative index of Solution 8 (Test Compound alone)” value in the test on ROS17/2.8 cells [2] (setting [3]) was 1.03.

For the origin of these results see patent US20110306580A1 (DONG WHA PHARMACEUTICAL CO ., LTD., priority 2009, published 2011).
